US20230321123A1, “INHIBITORS OF PSEUDOMONAS AERUGINOSA VIRULENCE FACTOR LasB” (Helmholtz-Zentrum Für Infektionsforschung GmbH, priority 2020, published 2023)
Where two headings read alike, the source gives them in different places.

Molecular target: LasB (Pseudomonas aeruginosa, UniProt Q02RJ6)
Assay: biochemical
Parameters: species or system P. aeruginosa

LasB, sequence (Q02RJ6 198-498): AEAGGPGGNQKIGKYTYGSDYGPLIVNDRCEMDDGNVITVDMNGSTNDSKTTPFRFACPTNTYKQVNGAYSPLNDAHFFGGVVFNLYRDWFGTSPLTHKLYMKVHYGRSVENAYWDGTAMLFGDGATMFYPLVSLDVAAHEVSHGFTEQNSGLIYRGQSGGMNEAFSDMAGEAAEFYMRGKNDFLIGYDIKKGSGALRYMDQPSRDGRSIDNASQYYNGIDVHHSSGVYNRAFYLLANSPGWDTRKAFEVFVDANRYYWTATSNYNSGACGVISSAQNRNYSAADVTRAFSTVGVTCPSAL

Row | Structure (SMILES) | IC50 (IC50 against LasB) [µM] | also measured
1 | CC(C)CC(C(=O)N[C@H]1CCCN(Cc2ccc(Cl)cc2)C1)P(=O)(O)O (mixture of isomers) [Example 147, (1-(((S)-1-(4-Chlorobenzyl)piperidin-3-yl)amino)-4-methyl-1-oxopentan-2-yl)phosphonic acid] | 5.18 ± 0.53 | –
2 | CC(C)CC(C(=O)N[C@H](c1ncc(-c2ccc(Cl)c(Cl)c2)[nH]1)C(C)C)P(=O)(O)O (mixture of isomers) [Example 171, (1-(((S)-1-(5-(3,4-dichlorophenyl)-1H-imidazol-2-yl)-2-methylpropyl)amino)-4-methyl-1-oxopentan-2-yl)phosphonic acid] | – | IC50 (IC50 against LasB (Table 16), heteropentacycles and benzannulated heteropentacycles): 6 ± 0.2 µM
3 | O=C(Nc1ccccc1)C(S)Cc1ccccc1 (single isomer, unassigned) [Example 1 E1, 2-Mercapto-N,3-diphenylpropanamide] | 4.8 ± 0.7 | –
4 | O=C(Nc1ccccc1)C(S)Cc1ccccc1 (single isomer, unassigned) [Example 1 E2, 2-Mercapto-N,3-diphenylpropanamide] | 1 ± 0.1 | –
5 | Cc1ccccc1NC(=O)C(S)Cc1ccccc1 (centres unmarked) [Example 6] | – | IC50 (read-out: IC50 against LasB): 2.4 ± 1 µM
6 | Cc1cccc(NC(=O)C(S)Cc2ccccc2)c1 (centres unmarked) [Example 7] | 0.98 ± 0.43 | –
7 | O=C(Nc1ccc([N+](=O)[O-])cc1)C(S)Cc1ccccc1 (centres unmarked) [Example 9] | 0.97 ± 0.1 | –
8 | O=C(Nc1ccccc1)C(S)Cc1ccc(O)cc1 (centres unmarked) [Example 11] | 7.3 ± 0.5 | –
9 | O=C(Nc1ccccc1)C(S)Cc1ccc(O)c([N+](=O)[O-])c1 (centres unmarked) [Example 12] | – | IC50 (read-out: IC50 against LasB): 2.5 ± 0.1 µM
10 | Cc1ccc(CC(S)C(=O)Nc2ccccc2)cc1 (centres unmarked) [Example 13] | – | IC50 (read-out: IC50 against LasB): 2.8 ± 0.3 µM
11 | CC(S)C(=O)Nc1ccc(Cl)c(Cl)c1 (centres unmarked) [Example 15] | 4.5 ± 0.7 | –
12 | COc1ccc(NC(=O)C(C)S)cc1 (centres unmarked) [Example 16] | 45 ± 1 | –
13 | CC(=O)c1ccc(NC(=O)C(C)S)cc1 (centres unmarked) [Example 17] | 89 ± 9 | –
14 | CCC(S)C(=O)Nc1ccc(Cl)c(Cl)c1 (centres unmarked) [Example 18] | 2.4 ± 0.4 | –
15 | CCC(S)C(=O)Nc1ccc(OC)cc1 (centres unmarked) [Example 19] | 4.2 ± 0.6 | –
16 | CCC(S)C(=O)Nc1ccc(C(C)=O)cc1 (centres unmarked) [Example 20] | 10 ± 2 | –
17 | CC(C)C(S)C(=O)Nc1ccc(Cl)c(Cl)c1 (centres unmarked) [Example 21] | 2.5 ± 0.3 | –
18 | COc1ccc(NC(=O)C(S)C(C)C)cc1 (centres unmarked) [Example 22] | 16 ± 1 | –
19 | CC(=O)c1ccc(NC(=O)C(S)C(C)C)cc1 (centres unmarked) [Example 23] | 22 | –
20 | CCCC(S)C(=O)Nc1ccccc1 (centres unmarked) [Example 24] | 4.8 ± 0.4 | –
21 | CCCC(S)C(=O)Nc1ccc(C)cc1 (centres unmarked) [Example 25] | 2 ± 0.2 | –
22 | CCCC(S)C(=O)Nc1ccc(Cl)c(Cl)c1 (centres unmarked) [Example 26] | 4 ± 0.6 | –

Row | Structure (SMILES) | IC50 (IC50 against LasB) [µM] | also measured
23 | CCCC(S)C(=O)Nc1ccc(OC)cc1 (centres unmarked) [Example 27] | 2.4 ± 0.6 | –
24 | CCCC(S)C(=O)Nc1ccc(C(C)=O)cc1 (centres unmarked) [Example 28] | 2.6 ± 0.5 | –
25 | CCCCC(S)C(=O)Nc1ccc(Cl)c(Cl)c1 (centres unmarked) [Example 29] | 6.8 ± 1.1 | –
26 | CCCCC(S)C(=O)Nc1ccc(OC)cc1 (centres unmarked) [Example 30] | 2.8 ± 0.3 | –
27 | CC(C)CC(S)C(=O)Nc1ccc(Cl)c(Cl)c1 (centres unmarked) [Example 31] | 2.6 ± 0.2 | –
28 | COc1ccccc1NC(=O)C(S)CC(C)C (centres unmarked) [Example 32] | 0.7 ± 0.04 | –
29 | COc1cccc(NC(=O)C(S)CC(C)C)c1 (centres unmarked) [Example 33] | 0.56 ± 0.03 | –
30 | COc1ccc(NC(=O)C(S)CC(C)C)cc1 (centres unmarked) [Example 34] | 0.36 ± 0.11 | –
31 | CC(C)CC(S)C(=O)Nc1ccc(Cl)cc1 (centres unmarked) [Example 38] | 0.84 ± 0.24 | –
32 | CC(=O)c1ccc(NC(=O)C(S)CC(C)C)cc1 (centres unmarked) [Example 39] | 0.69 ± 0.34 | –
33 | CC(C)CC(S)C(=O)Nc1ccccc1O (centres unmarked) [Example 40] | 1.4 ± 0.2 | –
34 | CCC(C)C(S)C(=O)Nc1ccc(Cl)c(Cl)c1 (centres unmarked) [Example 43] | 7.5 ± 0.2 | –
35 | CCC(C)C(S)C(=O)Nc1ccc(OC)cc1 (centres unmarked) [Example 44] | 17 ± 2 | –
36 | O=C(Nc1ccc(Cl)c(Cl)c1)C(S)CC1CC1 (centres unmarked) [Example 45] | – | IC50 (read-out: IC50 against LasB): 6.3 ± 1.2 µM
37 | COc1ccc(NC(=O)C(S)CC2CC2)cc1 (centres unmarked) [Example 46] | 3.9 ± 0.6 | –
38 | O=C(Nc1ccc(Cl)c(Cl)c1)C(S)CC1CCCCC1 (centres unmarked) [Example 47] | – | IC50 (read-out: IC50 against LasB): 12 ± 3 µM
39 | COc1ccc(NC(=O)C(S)CC2CCCCC2)cc1 (centres unmarked) [Example 48] | 2.6 ± 1.2 | –
40 | COCC(S)C(=O)Nc1ccc(Cl)c(Cl)c1 (centres unmarked) [Example 49] | 2.4 ± 0.6 | –
41 | COCC(S)C(=O)Nc1ccc(OC)cc1 (centres unmarked) [Example 50] | 17 ± 1 | –
42 | O=C(O)CC(S)C(=O)Nc1ccc(Cl)c(Cl)c1 (centres unmarked) [Example 54] | 3.9 ± 0.4 | –
43 | O=C(Nc1nc2ccccc2s1)C(S)Cc1ccccc1 (centres unmarked) [Example 55] | 0.75 ± 0.07 | –
44 | COc1ccc2nc(NC(=O)C(S)Cc3ccccc3)sc2c1 (centres unmarked) [Example 56] | 0.95 ± 0.08 | –

Row | Structure (SMILES) | IC50 (IC50 against LasB) [µM] | also measured
45 | O=C(Nc1nc2ccc(Cl)cc2s1)C(S)Cc1ccccc1 (centres unmarked) [Example 57] | – | IC50 (read-out: IC50 against LasB): 2.4 ± 0.2 µM
46 | O=C(Nc1nccs1)C(S)Cc1ccccc1 (centres unmarked) [Example 58] | – | IC50 (read-out: IC50 against LasB): 1.6 ± 0.1 µM
47 | COC(=O)c1ccsc1NC(=O)C(S)Cc1ccccc1 (centres unmarked) [Example 59] | – | IC50 (read-out: IC50 against LasB): 8 ± 1 µM
48 | O=C(Nc1cccnc1)C(S)Cc1ccccc1 (centres unmarked) [Example 60] | – | IC50 (read-out: IC50 against LasB): 1.2 ± 0.1 µM
49 | O=C(Nc1nc2ccccc2[nH]1)C(S)Cc1ccccc1 (centres unmarked) [Example 61] | 7.7 ± 1.4 | –
50 | CC(C)CC(S)C(=O)Nc1nc2ccccc2s1 (centres unmarked) [Example 62] | 0.65 ± 0.14 | –
51 | CC(C)CC(C(=O)Nc1ccc(Cl)c(Cl)c1)P(=O)(O)O (centres unmarked) [Example 64] | 0.026 ± 0.004 | –
52 | Cc1ccc(NC(=O)C(CC(C)C)P(=O)(O)O)c(F)c1 (centres unmarked) [Example 65] | 0.116 ± 0.016 | –
53 | COc1ccc(NC(=O)C(CC(C)C)P(=O)(O)O)cc1 (centres unmarked) [Example 66] | 0.052 ± 0.01 | –
54 | CC(=O)c1ccc(NC(=O)C(CC(C)C)P(=O)(O)O)cc1 (centres unmarked) [Example 67] | 0.04 ± 0.012 | –
55 | CC(C)CC(C(=O)Nc1ccc(C(F)(F)F)cc1)P(=O)(O)O (centres unmarked) [Example 68] | 0.026 ± 0.008 | –
56 | Cc1ccc(NC(=O)C(CC(C)C)P(=O)(O)O)c(C)c1 (centres unmarked) [Example 69] | 0.084 ± 0.003 | –
57 | CC(C)CC(C(=O)Nc1ccc(F)cc1)P(=O)(O)O (centres unmarked) [Example 70] | 0.093 ± 0.022 | –
58 | CC(C)CC(C(=O)Nc1ccc(Cl)cc1)P(=O)(O)O (centres unmarked) [Example 71] | 0.048 ± 0.004 | –
59 | CC(C)CC(C(=O)Nc1ccc(Br)cc1)P(=O)(O)O (centres unmarked) [Example 72] | 0.049 ± 0.002 | –
60 | CC(C)CC(C(=O)Nc1ccc(C#N)cc1)P(=O)(O)O (centres unmarked) [Example 73] | 0.025 ± 0.001 | –
61 | CC(C)CC(C(=O)Nc1ccc(S(=O)(=O)C(F)(F)F)cc1)P(=O)(O)O (centres unmarked) [Example 74] | 0.028 ± 0.006 | –
62 | CC(C)CC(C(=O)Nc1cccc2ccccc12)P(=O)(O)O (centres unmarked) [Example 75] | 0.069 ± 0.008 | –
63 | CC(C)CC(C(=O)Nc1ccc2ccccc2c1)P(=O)(O)O (centres unmarked) [Example 76] | 0.064 ± 0.01 | –
64 | CC(C)CC(C(=O)Nc1ccc2c(c1)CCC2)P(=O)(O)O (centres unmarked) [Example 77] | 0.044 ± 0.004 | –
65 | Cc1ccc(NC(=O)C(Cc2ccccc2)P(=O)(O)O)cc1 (centres unmarked) [Example 78] | 0.137 ± 0.033 | –
66 | O=C(Nc1ccc(C(F)(F)F)cc1)C(Cc1ccccc1)P(=O)(O)O (centres unmarked) [Example 79] | 0.102 ± 0.001 | –

Row | Structure (SMILES) | IC50 (IC50 against LasB) [µM] | also measured
67 | Cc1ccc(NC(=O)C(CC2CCCCC2)P(=O)(O)O)cc1 (centres unmarked) [Example 80] | 2.03 ± 0.11 | –
68 | O=C(Nc1ccc(C(F)(F)F)cc1)C(CC1CCCCC1)P(=O)(O)O (centres unmarked) [Example 81] | 1.87 ± 0.03 | –
69 | CC(C)CC(C(=O)Nc1ccc(Cl)cn1)P(=O)(O)O (centres unmarked) [Example 82] | 0.501 ± 0.039 | –
70 | CC(C)CC(C(=O)Nc1ccc(Cl)nc1)P(=O)(O)O (centres unmarked) [Example 83] | 1.13 ± 0.02 | –
71 | CC(C)CC(C(=O)Nc1ccc(C(N)=O)nc1)P(=O)(O)O (centres unmarked) [Example 84] | 0.223 ± 0.016 | –
72 | COC(=O)c1ccc(NC(=O)C(CC(C)C)P(=O)(O)O)cn1 (centres unmarked) [Example 85] | 0.194 ± 0.011 | –
73 | CC(C)CC(C(=O)Nc1cnc(Cl)nc1)P(=O)(O)O (centres unmarked) [Example 86] | 0.498 ± 0.025 | –
74 | CC(C)CC(C(=O)Nc1cnc(Br)nc1)P(=O)(O)O (centres unmarked) [Example 87] | 0.384 ± 0.002 | –
75 | CC(C)CC(C(=O)Nc1ccc(Cl)nn1)P(=O)(O)O (centres unmarked) [Example 88] | 18.8 ± 0.74 | –
76 | CC(C)CC(C(=O)Nc1ccc(Br)nn1)P(=O)(O)O (centres unmarked) [Example 89] | 7.91 ± 0.39 | –
77 | O=C(CP(=O)(O)O)Nc1ccc(-c2ccc(Cl)cc2)cn1 [Example 90] | – | inhibition of LasB (@ 50 μm): 31% inhibition @ 50 μm
78 | CC(C)CC(C(=O)N1CCN(c2ccc(Cl)cc2)CC1)P(=O)(O)O (centres unmarked) [Example 101] | 1.45 ± 0.03 | –
79 | CC(C)CC(C(=O)N1CCN(c2ncc(Br)cn2)CC1)P(=O)(O)O (centres unmarked) [Example 102] | 35.8 ± 1.75 | –
80 | CC(C)CC(C(=O)NC1CCN(c2ccc(Cl)cc2)CC1)P(=O)(O)O (centres unmarked) [Example 103] | 1.91 ± 0.11 | –
81 | CC(C)CC(C(=O)Nc1ccc(NS(=O)(=O)c2ccc3c(c2)CN(C(=O)C(F)(F)F)CC3)cc1)P(=O)(O)O (centres unmarked) [Example 115] | 0.057 ± 0.003 | –
82 | CC(C)CC(C(=O)Nc1ccc(NC(=O)c2ccc(Cl)c(Cl)c2)cc1)P(=O)(O)O (centres unmarked) [Example 118] | 0.025 ± 0.001 | –
83 | CC(C)CC(C(=O)Nc1ccc(NC(=O)C(Cc2ccccc2)c2ccccc2)cc1)P(=O)(O)O (centres unmarked) [Example 120] | 0.03 ± 0.001 | –
84 | CC(C)CC(C(=O)Nc1ccc(NC(=O)c2nc(Cl)cs2)cc1)P(=O)(O)O (centres unmarked) [Example 129] | 0.049 ± 0.002 | –
85 | CC(C)CC(C(=O)Nc1ccc(NC(=O)c2ccc(Cl)c(Cl)c2)cc1)P(=O)(O)O (centres unmarked) [Example 137] | 0.041 ± 0.003 | –
86 | CC(C)CC(C(=O)NC1CCN(Cc2ccc(Cl)cc2)CC1)P(=O)(O)O (centres unmarked) [Example 146] | 2.27 ± 0.07 | –
